Consider three molecules from patent US20070149535A1, “Protein kinase inhibitors” (ONCALIS AG, priority 2004, published 2007).

Holding throughout (test): Yeast growth assay, specificity profiling
What all share (type): cell-based
What all share (design): key: “−” indicates no growth restoration i.e. no activity against the particular kinase; “+”, “++”, and “+++” indicate activity detected by restoration of growth, classified into three categories of potency; “+”, “++”, and “+++” indicate activity detected by restoration of growth, classified into three categories of potency; “+”, “++”, and “+++” indicate activity detected by restoration of growth, classified into three categories of potency
What all share (conditions): 7 concentrations between 0.2 and 100 μM

Assay [1] addresses T1, TEK (Homo sapiens, UniProt Q02763).
T1 construct: expressed in transfected cells; host or cells: yeast
The method, then:
(§1) Specificity Profiling: Yeast Growth Assay
(§2) The yeast growth assay was performed as described in “Method for the identification and/or validation of receptor tyrosine kinase inhibitors” PCT/CH03/00694 (2004/10/24), section “Modes for Carrying out the Invention, Experiment 1 and Experiment 2.
(§3) Briefly, yeast cells carrying plasmids with the RTK of interest were grown in glucose containing medium (repressing expression). The cultures were diluted into galactose containing medium, which induces the expression of the kinase. Expression of the kinase inhibits growth of the yeast cells, which allows for positive selection of kinase inhibitors restoring growth of cells. Compounds were titrated at 7 concentrations between 0.2 and 100 μM.
(§4) Specificity profiling of compounds, using the yeast growth assay method described above. “−” indicates no growth restoration i.e. no activity against the particular kinase, “+”, “++”, and “+++” indicate activity detected by restoration of growth, classified into three categories of potency according to the maximal level of growth restoration reached and the concentration at which the maximal growth restoration is reached.

Assay [2] addresses T2, EphB2 (Homo sapiens, UniProt P29323).
T2 construct: expressed in transfected cells; host or cells: yeast
T2 sequence (P29323 19-1055): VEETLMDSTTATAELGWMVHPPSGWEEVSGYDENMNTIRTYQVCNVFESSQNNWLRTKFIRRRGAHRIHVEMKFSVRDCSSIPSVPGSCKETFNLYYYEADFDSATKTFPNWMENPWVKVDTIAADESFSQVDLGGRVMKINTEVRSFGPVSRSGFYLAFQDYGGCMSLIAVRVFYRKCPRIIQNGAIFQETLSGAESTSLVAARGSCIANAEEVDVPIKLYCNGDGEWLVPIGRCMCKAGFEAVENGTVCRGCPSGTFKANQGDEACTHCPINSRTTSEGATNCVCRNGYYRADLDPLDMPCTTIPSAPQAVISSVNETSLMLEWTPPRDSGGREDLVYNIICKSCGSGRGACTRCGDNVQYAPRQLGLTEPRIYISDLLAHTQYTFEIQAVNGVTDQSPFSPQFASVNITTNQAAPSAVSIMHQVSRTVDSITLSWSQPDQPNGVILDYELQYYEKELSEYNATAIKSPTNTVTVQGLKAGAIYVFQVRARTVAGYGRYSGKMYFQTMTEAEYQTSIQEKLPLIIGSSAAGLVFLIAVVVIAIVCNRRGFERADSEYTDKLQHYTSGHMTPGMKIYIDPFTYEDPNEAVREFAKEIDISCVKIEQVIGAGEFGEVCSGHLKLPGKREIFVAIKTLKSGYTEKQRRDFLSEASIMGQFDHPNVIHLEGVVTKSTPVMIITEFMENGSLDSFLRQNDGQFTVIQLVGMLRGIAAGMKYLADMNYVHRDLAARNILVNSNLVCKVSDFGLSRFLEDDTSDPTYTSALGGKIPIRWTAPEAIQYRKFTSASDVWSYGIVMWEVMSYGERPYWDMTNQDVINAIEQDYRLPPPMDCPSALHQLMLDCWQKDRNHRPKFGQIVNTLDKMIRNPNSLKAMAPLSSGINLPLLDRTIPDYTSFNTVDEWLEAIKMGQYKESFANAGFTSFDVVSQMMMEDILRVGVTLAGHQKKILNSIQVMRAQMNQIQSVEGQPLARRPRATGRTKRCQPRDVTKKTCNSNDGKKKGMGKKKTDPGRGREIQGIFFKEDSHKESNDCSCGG
The method, then:
as §1, §2, §3, §4

The target in assay [3] is T3, VEGFR2 (Homo sapiens, UniProt P35968).
T3 construct: expressed in transfected cells; host or cells: yeast
The method, then: as §1, §2, §3, §4

Assay [4] concerns the target T4, RET (Homo sapiens, UniProt P07949).
T4 construct: expressed in transfected cells; host or cells: yeast
The method, then:
as §1, §2, §3, §4

T3 sequence (P35968 20-1356): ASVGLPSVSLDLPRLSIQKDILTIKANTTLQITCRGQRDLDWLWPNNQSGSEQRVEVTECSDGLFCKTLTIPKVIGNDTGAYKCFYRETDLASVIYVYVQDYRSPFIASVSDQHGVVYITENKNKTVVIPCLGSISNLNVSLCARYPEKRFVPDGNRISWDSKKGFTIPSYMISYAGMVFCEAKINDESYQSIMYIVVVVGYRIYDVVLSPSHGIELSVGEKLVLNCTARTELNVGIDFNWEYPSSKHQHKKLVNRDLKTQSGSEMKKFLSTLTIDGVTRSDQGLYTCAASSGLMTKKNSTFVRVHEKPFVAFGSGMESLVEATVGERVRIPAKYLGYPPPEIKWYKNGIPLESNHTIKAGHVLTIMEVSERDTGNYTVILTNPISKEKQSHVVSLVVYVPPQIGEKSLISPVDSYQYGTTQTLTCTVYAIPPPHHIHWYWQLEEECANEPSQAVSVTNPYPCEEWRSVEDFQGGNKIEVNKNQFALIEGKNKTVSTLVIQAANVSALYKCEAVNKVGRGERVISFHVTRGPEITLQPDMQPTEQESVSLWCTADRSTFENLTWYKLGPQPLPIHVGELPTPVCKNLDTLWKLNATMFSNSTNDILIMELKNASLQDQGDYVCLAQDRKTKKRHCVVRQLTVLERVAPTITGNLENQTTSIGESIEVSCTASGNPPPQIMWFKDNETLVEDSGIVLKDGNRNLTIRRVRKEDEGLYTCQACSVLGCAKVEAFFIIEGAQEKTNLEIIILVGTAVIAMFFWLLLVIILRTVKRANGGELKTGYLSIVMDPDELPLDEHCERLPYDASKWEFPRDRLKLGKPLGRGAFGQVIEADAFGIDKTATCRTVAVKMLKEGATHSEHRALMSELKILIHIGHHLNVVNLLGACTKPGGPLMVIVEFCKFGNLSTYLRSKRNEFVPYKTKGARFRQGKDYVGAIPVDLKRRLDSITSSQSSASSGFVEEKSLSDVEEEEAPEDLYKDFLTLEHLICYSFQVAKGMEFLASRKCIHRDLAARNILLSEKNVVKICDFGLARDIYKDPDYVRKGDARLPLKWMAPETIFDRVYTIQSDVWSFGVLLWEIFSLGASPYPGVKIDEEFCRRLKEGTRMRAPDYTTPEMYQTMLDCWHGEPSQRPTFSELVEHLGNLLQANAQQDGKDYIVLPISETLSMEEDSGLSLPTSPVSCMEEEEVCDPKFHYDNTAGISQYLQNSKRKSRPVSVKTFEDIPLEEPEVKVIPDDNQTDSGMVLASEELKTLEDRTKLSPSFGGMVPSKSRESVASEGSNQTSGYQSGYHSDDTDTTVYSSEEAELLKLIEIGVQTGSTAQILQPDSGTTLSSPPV
T1 sequence (Q02763 23-1124): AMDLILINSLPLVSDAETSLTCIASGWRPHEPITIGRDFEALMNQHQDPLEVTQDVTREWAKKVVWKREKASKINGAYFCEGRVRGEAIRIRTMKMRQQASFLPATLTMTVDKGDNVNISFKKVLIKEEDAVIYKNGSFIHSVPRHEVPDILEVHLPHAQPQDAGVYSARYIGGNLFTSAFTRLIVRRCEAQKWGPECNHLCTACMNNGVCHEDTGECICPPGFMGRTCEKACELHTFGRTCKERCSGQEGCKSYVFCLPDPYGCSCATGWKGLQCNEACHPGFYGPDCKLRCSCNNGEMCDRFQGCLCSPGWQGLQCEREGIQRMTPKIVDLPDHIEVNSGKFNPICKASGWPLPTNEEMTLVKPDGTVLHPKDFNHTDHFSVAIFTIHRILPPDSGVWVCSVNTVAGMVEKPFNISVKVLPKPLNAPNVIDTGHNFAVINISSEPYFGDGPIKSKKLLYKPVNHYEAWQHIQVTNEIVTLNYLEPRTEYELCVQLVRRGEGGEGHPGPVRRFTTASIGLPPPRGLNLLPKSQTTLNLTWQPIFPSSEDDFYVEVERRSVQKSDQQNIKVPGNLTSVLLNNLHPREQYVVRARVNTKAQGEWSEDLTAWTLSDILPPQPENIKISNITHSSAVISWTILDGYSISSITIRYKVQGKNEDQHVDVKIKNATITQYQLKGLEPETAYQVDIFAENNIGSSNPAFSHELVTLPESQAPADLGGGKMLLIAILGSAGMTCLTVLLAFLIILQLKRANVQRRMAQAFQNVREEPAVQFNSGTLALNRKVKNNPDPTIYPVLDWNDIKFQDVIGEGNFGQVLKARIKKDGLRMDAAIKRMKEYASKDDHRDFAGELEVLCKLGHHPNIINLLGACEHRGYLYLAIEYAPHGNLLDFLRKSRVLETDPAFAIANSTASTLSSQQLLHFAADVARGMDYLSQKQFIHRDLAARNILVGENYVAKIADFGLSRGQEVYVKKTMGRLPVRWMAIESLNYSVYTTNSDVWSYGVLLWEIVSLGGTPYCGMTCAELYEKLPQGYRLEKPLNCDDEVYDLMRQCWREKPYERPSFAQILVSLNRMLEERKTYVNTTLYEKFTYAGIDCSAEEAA
T4 sequence (P07949 29-1114): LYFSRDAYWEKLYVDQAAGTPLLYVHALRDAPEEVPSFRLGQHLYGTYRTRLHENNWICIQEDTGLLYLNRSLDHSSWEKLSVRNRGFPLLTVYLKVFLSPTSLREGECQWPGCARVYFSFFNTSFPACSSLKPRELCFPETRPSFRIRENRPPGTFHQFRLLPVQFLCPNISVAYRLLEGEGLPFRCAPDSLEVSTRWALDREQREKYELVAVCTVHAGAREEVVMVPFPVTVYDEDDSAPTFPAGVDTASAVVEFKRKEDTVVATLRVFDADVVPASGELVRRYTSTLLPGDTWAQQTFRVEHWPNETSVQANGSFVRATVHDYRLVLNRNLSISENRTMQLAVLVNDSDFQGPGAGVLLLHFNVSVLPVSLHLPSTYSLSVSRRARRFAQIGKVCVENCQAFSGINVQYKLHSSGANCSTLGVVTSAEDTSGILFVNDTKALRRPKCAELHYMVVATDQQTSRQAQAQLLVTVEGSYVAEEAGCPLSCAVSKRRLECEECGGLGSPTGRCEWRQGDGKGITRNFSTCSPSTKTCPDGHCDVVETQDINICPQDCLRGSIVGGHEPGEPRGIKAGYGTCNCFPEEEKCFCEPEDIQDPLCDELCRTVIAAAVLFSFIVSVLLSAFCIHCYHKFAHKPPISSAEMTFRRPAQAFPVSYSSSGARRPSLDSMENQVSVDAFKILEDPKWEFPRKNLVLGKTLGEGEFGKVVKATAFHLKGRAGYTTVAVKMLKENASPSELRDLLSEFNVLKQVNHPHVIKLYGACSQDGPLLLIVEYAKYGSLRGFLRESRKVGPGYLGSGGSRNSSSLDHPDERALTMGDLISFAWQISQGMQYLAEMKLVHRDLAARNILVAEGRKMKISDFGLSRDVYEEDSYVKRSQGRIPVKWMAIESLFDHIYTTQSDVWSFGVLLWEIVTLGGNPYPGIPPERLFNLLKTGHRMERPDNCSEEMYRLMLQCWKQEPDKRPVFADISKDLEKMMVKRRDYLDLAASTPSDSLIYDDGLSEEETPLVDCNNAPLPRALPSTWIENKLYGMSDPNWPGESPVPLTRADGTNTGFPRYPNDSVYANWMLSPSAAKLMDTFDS

Consider `Cc1nccn2c(Nc3cccc(F)c3)c(-c3ccccc3)nc12` [compound 44, (3-Fluoro-phenyl)-(8-methyl-2-phenyl-imidazo[1,2-a]pyrazin-3-yl)-amine], for which the TEK growth restoration result in assay [1] is recorded as “−”. The EphB2 growth restoration result in assay [2] is “+++”. The VEGFR2 growth restoration entry in assay [3] was “−”. Besides, in assay [4], the RET growth restoration entry is “−”.

As for `Cc1nccn2c(Nc3ccc(F)c(F)c3)c(-c3ccccc3)nc12` [compound 45, (3,4-Difluoro-phenyl)-(8-methyl-2-phenyl-imidazo[1,2-a]pyrazin-3-yl)-amine], in assay [1], the TEK growth restoration entry was “−”. In addition, the EphB2 growth restoration entry in assay [2] is “++”. In assay [3], the VEGFR2 growth restoration result is listed as “−”. In addition, the RET growth restoration result in assay [4] was “−”.

Regarding `COc1cccc(-c2nc3c(C)nccn3c2Nc2cccc(Cl)c2)c1` [compound 48, (3-Chloro-phenyl)-[2-(3-methoxy-phenyl)-8-methyl-imidazo[1,2-a]pyrazin-3-yl]-amine], in assay [1], the TEK growth restoration result is reported as “−”. Further, the EphB2 growth restoration result in assay [2] is recorded as “+++”. Moreover, the VEGFR2 growth restoration result in assay [3] is “−”. In assay [4], the RET growth restoration result was “−”.
